Read-outs that look alike come from different tables or passages of the source.
Assay: Single oral dose human plasma pharmacokinetics of D, DA and DOH after Cogni.Q
Format: in vivo
Excerpt: Ten healthy male and 10 female subjects were recruited by public announcement in Amarillo, TX, from January 2013 to April 2013 (see Fig. 1 CONSORT diagram). The sample size for each gender was chosen without power calculation due to the lack of prior knowledge of PK parameter variance in humans. After receiving informed consent verbally and in writing, the health status of each candidate was confirmed by health questionnaire, plasma biochemistry (hepatic and renal functions), complete blood cell count (CBC), and a physical examination by a participating academic physician. Subjects with diabetes, or pregnant, perinatal and breastfeeding women were excluded. For the 48 hours preceding study visit until the final blood draw, all subjects were instructed to avoid taking any prescription or nonprescription drugs, vitamins, and herbal/dietary supplements. Each subject was compensated for participating in the study per TTUHSC IRB approved rate.
Eligible subjects arrived at our clinical facility at 0700 (7:00 am) on the test day after a fast beginning at 2200 (10:00 pm) the previous night. After a brief review of vital signs, the nurse placed an intravenous (IV) line with saline drip in one arm of each subject. A baseline pre-dose (hour 0) blood sample was drawn through the IV line; after that subjects swallowed four Cogni.Q vegicaps with 240 mL of water at hour 0 under direct supervision. Subjects stayed at the clinical facility in their room for the next 12 hours, returning at 24 and 48 hours. Blood was drawn at baseline (hour 0) and at 0.5, 1, 2, 3, 4, 6, 8, 12, 24 and 48 hours after dosing into Vacutainer Blood Collection Tube (Becton-Dickinson, Franklin Lakes, NJ. Product Number: 367874, Sodium heparin was used as anti-coagulant). Water was allowed as desired except for within the first hour after Cogni.Q consumption. All subjects received standardized meals at post-dose hours 4.5 and 9.5 but no food was allowed for at least the first 4 hours post-dose.
Plasma was prepared by centrifuging the heparinized blood at 1000 g for 15 minutes at room temperature. Urine samples (40mL) were collected within time spans of 0–4, 4–8, 8–12 and 12–24 hours (total volume of urine was recorded). All plasma and urine samples were put on dry ice immediately and then stored at -80°C freezer until analysis.
Plasma samples were extracted with a validated solid supported liquid extraction (SLE) method facilitated with a positive pressure manifold (Biotage, Charlotte, NC). Briefly, 100 μL of plasma sample was spiked with 5 μL of 10 ng/μL prednisolone (IS), diluted with 200 μL of LC-MS grade water, mixed and loaded onto ISOLUTE SLE+ 400 μL Array Well cartridges (Biotage, Charlotte, NC). A pulse of minimum positive pressure was applied to facilitate the samples absorption into the cartridges. After the samples were allowed to absorb for 5 min, the compounds were eluted with 2×500 μL tert-butyl methyl ether. The eluent was dried in a Speedvac and the resulting residue was reconstituted in 50 μL of methanol for UHPLC-MS/MS analysis.
Eight-point calibration curves were constructed for D, DA and DOH, at concentrations of 0.1, 0.5, 1, 5, 10, 20, 50 and 100 μg/L for D and DA, and at concentrations of 1, 5, 10, 50, 100, 200, 500 and 1000 μg/L for DOH, respectively. The linear range was 0.1–100 μg/L (0.3–300 nmol/L), 0.1–100 μg/L (0.3–300 nmol/L) and 1–1000 μg/L (4–4000 nmol/L) for D, DA and DOH, respectively. The inter- and intra-assay CV were lower than 6.5% and the accuracy was between 90–105%. Calibration curve was run for each batch of samples analyzed. The mean calibration curve correlation coefficient (r) for D, DA and DOH was 0.999, 0.999 and 0.998, respectively (data from 7–10 calibration curves). In addition, 70% of the plasma samples were extracted and analyzed twice, the data from two replicate analyses were nearly identical and combined for final data analyses and presentation. […]

## CC(C)=CC(=O)O[C@H]1Cc2cc3ccc(=O)oc3cc2OC1(C)C [D, decursin]
Both sexes, human, plasma, oral, 4 Cogni.Q vegicaps, n=20 (S1 Table), read-out: Cmax, nM, Grand Mean
  Cmax: 5.3 nM
Both sexes, human, plasma, oral, 4 Cogni.Q vegicaps, n=20 (S1 Table), read-out: Tmax, h, Grand Mean
  Tmax: 2.1 h
Both sexes, human, plasma, oral, all subjects, outliers excluded (S1 Table), read-out: Terminal t1/2, h, Grand Mean (converted)
  half-life: 17.4 h
Both sexes, human, plasma, oral, n=20 (S1 Table), read-out: AUC0-48h, Grand Mean
  AUC(0-t): 37.1 nmol·h/L
Both sexes, human, plasma, po, all human subjects n = 20, single oral dose Cogni.Q, plasma (Table 2), read-out: AUC0–48h, nmol/L, Mean (SD)
  AUC(0-t): 37.1 nmol·h/L
Both sexes, human, twenty healthy subjects, single oral dose Cogni.Q, plasma (abstract), read-out: mean area under the curve (AUC0-48h)
  AUC(0-t): 37 nmol·h/L
Both sexes, all human subjects n = 20, single oral dose 4 Cogni.Q vegicaps (119 mg D, 77 mg DA), plasma, read-out: Tmax, h, Mean (SD)
  Tmax: 2.1 h
Both sexes, all human subjects, four outlier subjects excluded, single oral dose Cogni.Q, plasma, read-out: Terminal t1/2, h, Mean (SD) (converted)
  half-life: 17.4 h
female, human, plasma, oral, 4 Cogni.Q vegicaps, Women n=10 (S1 Table), read-out: AUC0-48h, Mean, F
  AUC(0-t): 45.7 nmol·h/L
female, human, plasma, oral, 4 Cogni.Q vegicaps, Women n=10 (S1 Table), read-out: Cmax, nM, Mean, F
  Cmax: 5.37 nM
female, human, plasma, oral, Women n=10 (S1 Table), read-out: Tmax, h, Mean, F
  Tmax: 2.4 h
female, human, plasma, oral, Women, outliers excluded (S1 Table), read-out: Terminal t1/2, h, Mean, F (converted)
  half-life: 17 h
female, human, plasma, po, Women N = 10, single oral dose Cogni.Q, plasma, read-out: AUC0–48h, h.nmol/L Mean (SD)
  AUC(0-t): 45.7 nmol·h/L
female, human, plasma, po, Women N = 10, single oral dose Cogni.Q, plasma, read-out: Cmax, nmol/L, Mean (SD)
  Cmax: 5.4 nM
female, human, plasma, po, Women N = 10, single oral dose Cogni.Q, plasma, read-out: Tmax, h, Mean (SD)
  Tmax: 2.4 h
female, human, plasma, po, Women, outlier subjects excluded, single oral dose Cogni.Q, plasma, read-out: T1/2, h, terminal Mean (SD) (converted)
  half-life: 17 h
human, plasma, oral, 4 Cogni.Q vegicaps, subject S1 (115 lb), outlier, excluded from means, read-out: Terminal t1/2, h (converted)
  half-life: 173 h
human, plasma, oral, 4 Cogni.Q vegicaps, subject S1 (115 lb), read-out: AUC0-48h
  AUC(0-t): 45 nmol·h/L
human, plasma, oral, 4 Cogni.Q vegicaps, subject S1 (115 lb), read-out: Cmax
  Cmax: 4.7 nM
human, plasma, oral, 4 Cogni.Q vegicaps, subject S1 (115 lb), read-out: Tmax
  Tmax: 1 h
human, plasma, oral, 4 Cogni.Q vegicaps, subject S2 (194 lb), read-out: AUC0-48h
  AUC(0-t): 14.8 nmol·h/L
human, plasma, oral, 4 Cogni.Q vegicaps, subject S2 (194 lb), read-out: Cmax
  Cmax: 2 nM
human, plasma, oral, 4 Cogni.Q vegicaps, subject S2 (194 lb), read-out: Terminal t1/2, h (converted)
  half-life: 16.9 h
human, plasma, oral, 4 Cogni.Q vegicaps, subject S2 (194 lb), read-out: Tmax
  Tmax: 2 h
human, plasma, oral, 4 Cogni.Q vegicaps, subject S3 (170 lb), outlier, excluded from means, read-out: Terminal t1/2, h (converted)
  half-life: 69.6 h
human, plasma, oral, 4 Cogni.Q vegicaps, subject S3 (170 lb), read-out: AUC0-48h
  AUC(0-t): 9.8 nmol·h/L
human, plasma, oral, 4 Cogni.Q vegicaps, subject S3 (170 lb), read-out: Cmax
  Cmax: 1.6 nM
human, plasma, oral, 4 Cogni.Q vegicaps, subject S3 (170 lb), read-out: Tmax
  Tmax: 4 h
human, plasma, oral, 4 Cogni.Q vegicaps, subject S4 (170 lb), read-out: AUC0-48h
  AUC(0-t): 119 nmol·h/L
human, plasma, oral, 4 Cogni.Q vegicaps, subject S4 (170 lb), read-out: Cmax
  Cmax: 13.2 nM
human, plasma, oral, 4 Cogni.Q vegicaps, subject S4 (170 lb), read-out: Terminal t1/2, h (converted)
  half-life: 10.8 h
human, plasma, oral, 4 Cogni.Q vegicaps, subject S4 (170 lb), read-out: Tmax
  Tmax: 2 h
human, plasma, oral, 4 Cogni.Q vegicaps, subject S5 (161 lb), read-out: AUC0-48h
  AUC(0-t): 34.3 nmol·h/L
human, plasma, oral, 4 Cogni.Q vegicaps, subject S5 (161 lb), read-out: Cmax
  Cmax: 2 nM
human, plasma, oral, 4 Cogni.Q vegicaps, subject S5 (161 lb), read-out: Terminal t1/2, h (converted)
  half-life: 22.8 h
human, plasma, oral, 4 Cogni.Q vegicaps, subject S5 (161 lb), read-out: Tmax
  Tmax: 1 h
human, plasma, oral, 4 Cogni.Q vegicaps, subject S6 (120 lb), read-out: AUC0-48h
  AUC(0-t): 94 nmol·h/L
human, plasma, oral, 4 Cogni.Q vegicaps, subject S6 (120 lb), read-out: Cmax
  Cmax: 13.4 nM
human, plasma, oral, 4 Cogni.Q vegicaps, subject S6 (120 lb), read-out: Terminal t1/2, h (converted)
  half-life: 12.8 h
human, plasma, oral, 4 Cogni.Q vegicaps, subject S6 (120 lb), read-out: Tmax
  Tmax: 3 h
human, plasma, oral, 4 Cogni.Q vegicaps, subject S7 (180 lb), read-out: AUC0-48h
  AUC(0-t): 23.3 nmol·h/L
human, plasma, oral, 4 Cogni.Q vegicaps, subject S7 (180 lb), read-out: Cmax
  Cmax: 3.6 nM
human, plasma, oral, 4 Cogni.Q vegicaps, subject S7 (180 lb), read-out: Terminal t1/2, h (converted)
  half-life: 24.7 h
human, plasma, oral, 4 Cogni.Q vegicaps, subject S7 (180 lb), read-out: Tmax
  Tmax: 4 h
human, plasma, oral, 4 Cogni.Q vegicaps, subject S8 (160 lb), read-out: AUC0-48h
  AUC(0-t): 79.2 nmol·h/L
human, plasma, oral, 4 Cogni.Q vegicaps, subject S8 (160 lb), read-out: Cmax
  Cmax: 9.6 nM
human, plasma, oral, 4 Cogni.Q vegicaps, subject S8 (160 lb), read-out: Terminal t1/2, h (converted)
  half-life: 9.9 h
human, plasma, oral, 4 Cogni.Q vegicaps, subject S8 (160 lb), read-out: Tmax
  Tmax: 3 h
human, plasma, oral, 4 Cogni.Q vegicaps, subject S9 (158 lb), read-out: AUC0-48h
  AUC(0-t): 20.6 nmol·h/L
human, plasma, oral, 4 Cogni.Q vegicaps, subject S9 (158 lb), read-out: Cmax
  Cmax: 2.4 nM
human, plasma, oral, 4 Cogni.Q vegicaps, subject S9 (158 lb), read-out: Terminal t1/2, h (converted)
  half-life: 24 h
human, plasma, oral, 4 Cogni.Q vegicaps, subject S9 (158 lb), read-out: Tmax
  Tmax: 1 h

Reference: paper PMC4335020, “Single Oral Dose Pharmacokinetics of Decursin and Decursinol Angelate in Healthy Adult Men and Women” (PLoS ONE, 2015)
